Test results: paper PMC3269340, “Pharmacokinetics of memantine in rats and mice” (PLoS Currents, 2012)

Tests used:
OATP2B1 [1] = target: T1, OATP2B1 (Homo sapiens, UniProt O94956); experiment: Indirect uptake transporter assay, OATP2B1; format: in vitro ADME
T1 construct: expressed in transfected cells; host or cells: MDCKII cells
T1 sequence (O94956 1-709): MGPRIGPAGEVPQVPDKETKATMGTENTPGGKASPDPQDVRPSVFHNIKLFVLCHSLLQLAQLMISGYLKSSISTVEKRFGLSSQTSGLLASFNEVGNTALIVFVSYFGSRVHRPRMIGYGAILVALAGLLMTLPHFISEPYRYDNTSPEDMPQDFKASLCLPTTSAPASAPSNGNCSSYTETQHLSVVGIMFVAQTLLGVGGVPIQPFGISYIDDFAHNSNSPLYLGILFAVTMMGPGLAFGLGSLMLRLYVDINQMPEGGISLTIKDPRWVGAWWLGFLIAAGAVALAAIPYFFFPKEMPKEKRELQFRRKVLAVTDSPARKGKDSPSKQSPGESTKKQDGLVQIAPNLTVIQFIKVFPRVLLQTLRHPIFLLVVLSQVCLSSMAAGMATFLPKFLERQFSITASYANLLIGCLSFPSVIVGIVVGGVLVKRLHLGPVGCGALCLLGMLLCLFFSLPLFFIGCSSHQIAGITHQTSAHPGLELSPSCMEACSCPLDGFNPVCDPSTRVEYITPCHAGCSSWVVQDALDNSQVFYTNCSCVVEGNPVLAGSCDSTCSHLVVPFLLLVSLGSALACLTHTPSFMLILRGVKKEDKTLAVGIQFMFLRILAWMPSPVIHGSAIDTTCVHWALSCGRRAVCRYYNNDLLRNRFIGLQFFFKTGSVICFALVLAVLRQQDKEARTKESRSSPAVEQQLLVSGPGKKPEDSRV
Text: To determine whether memantine is an inhibitor of the human OATP2B1 (OATP-B), OCT1, OCT2, OAT3, PEPT1, PEPT2 uptake transporters. The standard uptake transporter assay is an indirect, inhibitory-type screening assay, performed with cold test article, which in this case was memantine. It provides information on any interaction (substrate or inhibitor) between selected uptake transporters and memantine that would affect the transport of the reporter compound. […] A radiolabeled reporter substrate is transported into the cells transfected with the selected human uptake transporter, and the inhibitory effect of memantine on the transport of this reporter substrate is measured. Values are presented on a relative scale; 100% defined as transport in the presence of the solvent and without memantine (no inhibition), and 0% defined as transport detected without transporter activity. IC50 is defined as the concentration required to inhibit the transport of the reporter substrate by 50%. […]
After the experiment cells were rinsed with 2 x 100µl of Krebs-Henseleit buffer and lysed with 50 µl of 0.1M NaOH. ^3H-estrone-3-sulfate, ^14C-TEA, ^14C-metformin and ^3H-Gly-Sar transport was determined by total radioactivity by transferring an aliquot (35µl) from each well to a vial containing liquid scintillant for analysis.

OATP2B1 [2] = target: T1, OATP2B1; experiment: Direct uptake transporter assay, OATP2B1; format: in vitro ADME; conditions: for Accumulation in transporter transfected cells: OATP2B1-transfected cells; for Accumulation in parental cells: parental MDCKII cells (OATP2B1 line)
Method: To determine whether memantine is a substrate of the human OATP2B1 (OATP-B), OCT1, OCT2, OAT3, PEPT1, PEPT2 uptake transporters.
The potential for memantine to be a substrate of an uptake transporter was determined directly by comparing the uptake of memantine into cells expressing the selected uptake transporter with its uptake into control cells. Memantine was added to transporter-expressing and control cells at two concentrations (PEPT1 and PEPT2 100 and 300 µM, OCT1 and OCT2 50 and 100 µM, OATP2B1 100 and 300 µM), and incubated with cells for 2 and 20 min at 37±1°C (75 µL final incubation volume). […] Incubations were carried out as described in the indirect uptake transporter assays. The concentration of memantine was determined by LC-MS/MS.

CC12CC3CC(C)(C1)CC(N)(C3)C2 [memantine]
IC50 (OATP2B1 [1]; OATP2B1, probe printed in Table 5: TEA (3.6 μM), methods and text: E3S): > 300 µM
inhibition at 300 µM (OATP2B1 [1]; human, probe 3H-estrone-3-sulfate, at 300 µM, read-out: inhibition of OATP2B1-mediated estrone-3-sulfate transport): 67%
substrate of OATP2B1 uptake transporter (OATP2B1 [2]): appeared to be a substrate
accumulation in transporter-transfected cells higher than in parental cells (OATP2B1 [2]; OATP2B1): > 1.5 fold
Highest Fold Activation (OATP2B1 [2]; OATP2B1, 300 µM, 20 min): 2.1 (300 µM, 20 min)
Accumulation in transporter transfected cells (OATP2B1 [2]; 2 min, 100 µM): 11317 pmol/mg
Accumulation in transporter transfected cells (OATP2B1 [2]; 2 min, 300 µM): 18296 pmol/mg
Accumulation in transporter transfected cells (OATP2B1 [2]; 20 min, 100 µM): 20820 pmol/mg
Accumulation in transporter transfected cells (OATP2B1 [2]; 20 min, 300 µM): 45866 pmol/mg
Accumulation in parental cells (OATP2B1 [2]; 2 min, 100 µM): 6409 pmol/mg
Accumulation in parental cells (OATP2B1 [2]; 2 min, 300 µM): 10891 pmol/mg
Accumulation in parental cells (OATP2B1 [2]; 20 min, 100 µM): 10889 pmol/mg
Accumulation in parental cells (OATP2B1 [2]; 20 min, 300 µM): 21496 pmol/mg
